From patent publication US20180186968A1, “AGENT FOR SUPPRESSING ODORS OF POLYSULFIDE COMPOUNDS” (KAO CORPORATION, priority 2015, published 2018)

Target: T1, olfactory receptor OR4S2 (Homo sapiens, UniProt Q8NH73)
T1 construct: Flag-Rho tag (N); expressed in transfected cells; host or cells: HEK293
T1 sequence (Q8NH73 1-311): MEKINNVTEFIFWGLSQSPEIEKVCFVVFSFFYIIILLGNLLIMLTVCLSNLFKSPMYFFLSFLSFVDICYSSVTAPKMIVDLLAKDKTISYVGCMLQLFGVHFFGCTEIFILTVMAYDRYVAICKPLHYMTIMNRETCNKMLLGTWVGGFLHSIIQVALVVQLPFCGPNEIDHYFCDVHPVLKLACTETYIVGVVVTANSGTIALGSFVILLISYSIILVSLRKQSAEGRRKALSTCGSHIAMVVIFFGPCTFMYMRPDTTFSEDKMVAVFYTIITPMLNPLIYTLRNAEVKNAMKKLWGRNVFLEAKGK
Experiment: Luciferase reporter gene assay: response of olfactory receptor to sulfur compounds
Assay type: cell-based
Conditions: 100 μM polysulfide compound; 428 olfactory receptors measured; HEK293 cells; FIG. 1
Description: A human olfactory receptor cloned using the PCR method with human genomic DNA (G1521:Promega Corporation) as a template on the basis of sequence information registered in GenBank. Each gene amplified through the PCR method was incorporated into a pENTR vector (Invitrogen) in accordance with the manual, and recombined, by utilizing the NotI and AscI sites present in the pENTR vector, with a pME18S vector at the NotI and AscI sites produced in the downstream of he Flag-Rho tag sequence of the pME18S vector. • (2) Preparation of pME18S-human RTP1S Vector
A vector expressing receptor-transporting protein (RTP), a protein which promotes the expression of an olfactory receptor polypeptide on the cell membrane, was prepared. Specifically, a gene encoding human RTP1S (GI: 50234917) was incorporated into a pME18S vector at the EcoRI and XhoI sites thereof. • (3) Preparation of Olfactory Receptor-expressing Cells
HEK293 cells expressing any one of human olfactory receptors were produced. A reaction solution with a composition shown in Table 2 was prepared and left to stand in a clean bench for 15 minutes, and then added to each well of a 96-well plate (BD Biosciences). Subsequently, 90 μL of HEK293 cells (3×10^5 cells/cm^2) was seeded in each well, and cultured in an incubator retained at 37° C. and 5% CO2 for 24 hours. As a control, cells with conditions for no expression of an olfactory receptor (Mock) were prepared and used in an experiment.
An olfactory receptor expressed on HEK293 cells increases the intracellular cAMP level through conjugation with the intracellular Gas followed by resulting activation of adenylate cyclase. For smell response measurement in this study, luciferase reporter gene assay was used in which increase of the intracellular cAMP level is monitored as an emission value derived from a firefly luciferase gene (fluc2P-CRE-hygro). Transgenesis was simultaneously performed by using a product with a sea pansy luciferase gene fused to the downstream of the CMV promoter (hRluc-CMV), and the resultant was used as an internal standard to correct errors of transgenesis efficiency and the number of cells.
The medium was removed from the culture prepared in the above(3), and 75 μL of a solution containing a polysulfide compound prepared with DMEM (NACALAI TESQUE, INC.) was added. The polysulfide compound was 100 μM of dimethyl disulfide (DMDS) or dimethyl trisulfide (DMTS). The cells were cultured in a CO2 incubator for 3 hours to allow the luciferase gene to be sufficiently expressed in the cells. Measurement of the activity of luciferase was performed by using a Dual-Glo (TM) luciferase assay system (Promega Corporation) in accordance with an operation manual of the product. For each stimulus condition, the value fLuc/hRluc was calculated by dividing the emission value derived from sea pansy luciferase. The value fLuc/hRluc derived from firefly luciferase and induced by a stimulus of a polysulfide compound was divided by the value fLuc/hRluc for cells without a stimulus of a polysulfide compound to calculate a fold increase, and the fold increase was used as an indicator of intensity of response. • (5) Results

**Q.** For CSSC [DMDS, Dimethyl disulfide], which “response of olfactory receptor OR4S2 to polysulfide compound (fold increase)” value is on record?
**A.** Its value is “exhibits a specific response”.

**Q.** With CSSSC [DMTS, Dimethyl trisulfide] as the compound, how does the “response of olfactory receptor OR4S2 to polysulfide compound (fold increase)” value read?
**A.** The value was “exhibits a specific response”.

Same assay, conditions: 3 mm test substance; FIG. 3

**Q.** For CS [methylmercaptan, Methylmercaptan], which “response of OR4S2 to methylmercaptan” value is on record?
**A.** Its value is “did not respond”.

Same assay, conditions: HEK293 cells expressing OR4S2; FIG. 2

**Q.** Which “response of OR4S2 at different concentrations” value does the source give for CSSC [DMDS, Dimethyl disulfide] here?
**A.** The value was “concentration-dependent manner”.

**Q.** For CSSSC [DMTS, Dimethyl trisulfide], which “response of OR4S2 at different concentrations” value is on record?
**A.** Its value is “concentration-dependent manner”.

Test system: not listed separately
Experiment: Sensory test of odor-suppressing effect for polysulfide compounds
Assay type: in vivo, human
Conditions: 0.01% (v/v) DMTS and 0.1% (v/v) test substance in mineral oil; 11 evaluators; FIG. 7
Procedure: The odor-suppressing effect of each of trimethylhexyl aldehyde (THA), cis-4-heptenal, and 1,4-cineol, as the OR4S2 antagonists identified in Example 2, for polysulfide compounds was checked in a sensory test.
For each of DMDS, THA, cis-4-heptenal, and 1,4-cineol, a 0.1% (v/v) solution in mineral oil was prepared. For DMTS, a 0.01% (v/v) solution in mineral oil was prepared. Two cotton balls were put in 20 mL glass bottle (Maruemu Corporation, No. 6), and one cottonball was impregnated with 30 μL of the DMDS or DMTS solution, and the other cotton ball was impregnated with 30 μL of a solution of one of the three OR4S2 antagonists. The glass bottle containing the cotton balls was covered with a lid, and left to stand at 37° C. for 1 hour, and thereafter used as a test sample for a sensory test. Glass bottles containing only cotton ball impregnated with the DMDS or DMTS solution were prepared as reference samples, and a glass bottle containing only cotton ball impregnated with mineral oil (Vehicle) was prepared as a control sample.
A sensory test was performed in a single-blinded mode with 10 evaluators for DMDS and 11evaluators for DMTS. The test was initiated after two o'clock pm, which was 1.5 hours or longer after a meal. To prevent diffusion of a smell, the test was performed essentially under a fume hood. To eliminate the influence of adaptation to odors of polysulfide compounds, the evaluators were appropriately checked for the intensity of recognition to the odor of DMDS or DMTS in the test, and rested as necessary. The evaluators were separated into two groups, and one group evaluated the odor-suppressing effect for DMDS or DMTS with respect to THA, cis-4-heptenal, and 1,4-cineol, in the presented, and the other group evaluated in with respect to 1,4-cineol, cis-4-heptenal, and THA, in the order presented. Each test sample was replaced with another one after evaluation by each of three evaluators.
In evaluation of odors of test samples, the following criteria in five grades were set for each evaluator; “odor of DMDS (or DMTS) was 1: unidentifiable, 2: perceivable, 3: easily identifiable, 4: strong, 5: intolerably strong”, and the evaluators rated the odor intensity of DMDS (or DMTS) for each test sample in nine grades from 1.0 to 5.0 at an interval of 0.5, where the odor intensity of single DMDS (or DMTS) was assumed as 3. The average value of the evaluation results by the evaluators was determined.

**Q.** For CC(C)C12CCC(C)(CC1)O2 [1,4-cineol, 1,4-Cineole], which “odor intensity of DMTS (sensory evaluation)” value (“odor intensity of DMTS” for short) is on record?
**A.** The value was “suppressed the odor intensity”.

**Q.** With CC(CC=O)CC(C)(C)C (stereo not drawn) [Trimethylhexyl aldehyde, 3,5,5-Trimethylhexanal] as the compound, how does the “odor intensity of DMTS” value read?
**A.** The value was “suppressed the odor intensity”.

**Q.** For CC/C=C\CCC=O [cis-4-heptenal, (Z)-Hept-4-enal], which “odor intensity of DMTS” value is on record?
**A.** The value was “suppressed the odor intensity”.

Same assay, conditions: 0.1% (v/v) DMDS and 0.1% (v/v) test substance in mineral oil; 10 evaluators; FIG. 6

**Q.** With CC(C)C12CCC(C)(CC1)O2 [1,4-cineol, 1,4-Cineole] as the compound, how does the “odor intensity of DMDS (sensory evaluation)” value (“odor intensity of DMDS” for short) read?
**A.** The value was “suppressed the odor intensity”.

**Q.** With CC(CC=O)CC(C)(C)C (stereo not drawn) [Trimethylhexyl aldehyde, 3,5,5-Trimethylhexanal] as the compound, how does the “odor intensity of DMDS” value read?
**A.** The value was “suppressed the odor intensity”.

**Q.** For CC/C=C\CCC=O [cis-4-heptenal, (Z)-Hept-4-enal], which “odor intensity of DMDS” value is on record?
**A.** The value was “suppressed the odor intensity”.

Target: T1, olfactory receptor OR4S2
Experiment: Luciferase reporter gene assay: suppression of OR4S2 response to DMDS or DMTS by test substance (OR4S2 antagonist search)
Assay type: cell-based
Conditions: DMDS 1 mM; test substance 0 to 3000 μM; FIG. 4
Procedure: By using the same procedure as in Example 1 (1) to (3), HEK293 cells expressing OR4S2 (SEQ ID NO: 1) were prepared. The response of the olfactory receptor to DMDS (the value fLuc/hRluc) was measured in the presence and absence of a test substance by using luciferase reporter gene assay in accordance with the procedure in Example 1 (4). The value fLuc/hRluc induced by a stimulus of single DMDS, (X), the value fLuc/hRluc for cells without a stimulus of DMDS, (Y), and the value fLuc/hRluc induced by a co-stimulus of DMDS and a test substance, (Z), were determined, and the intensity of the response (Response (%)) of the receptor to DMDS in the presence of a test substance was determined by using the following formula.
Response (%)=(Z−Y)/(X−Y)×100
The experiment s performed independently three times, and the average value of the experiments was determined. The concentration of DMDS to be added to a culture was set a 1 mM, and the concentration of a test substance to be added was changed in the range of 0 to 3000 μM.
For the response to DMTS, the value fLuc/hRluc to a stimulus of single DMTS, (X′), was divided by the value fLuc/hRluc for cells without a stimulus of DMTS, (Y), and the calculated value, (X′/Y), was calculated as a value of the response to DMTS Fold increase). To compare the effect of a test substance on the response to DMTS, the value fLuc/hRluc induced by a co-stimulus of DMTS and a test substance, (Z′), was similarly divided by the value fLuc/hRluc for cells without a stimulus, (Y), to calculate (Z′/Y) as Fold increase. The experiment was performed independently three times, and the average value of the experiments was determined. The concentration of DMTS to be added to a culture was set at 300 μM, and the concentration of a test substance to be added set at 100 μM.

**Q.** For CC(C)C12CCC(C)(CC1)O2 [1,4-cineol, 1,4-Cineole], which “response of OR4S2 to DMDS in the presence of test substance (Response %)” value (“response of OR4S2 to DMDS … (Response %)” for short) is on record?
**A.** The value was “suppressed the response of OR4S2 to DMDS in a concentration-dependent manner”.

**Q.** Which “response of OR4S2 to DMDS … (Response %)” value does the source give for CC(CC=O)CC(C)(C)C (stereo not drawn) [Trimethylhexyl aldehyde, 3,5,5-Trimethylhexanal] here?
**A.** The value was “suppressed the response of OR4S2 to DMDS in a concentration-dependent manner”.

**Q.** For CCCCOC(=O)C(C)CC (stereo not drawn) [butyl 2-methylbutanoate, Butyl 2-methylbutanoate], which “response of OR4S2 to DMDS … (Response %)” value is on record?
**A.** Its value is “suppressed the response of OR4S2 to DMDS in a concentration-dependent manner”.

**Q.** For CC/C=C\CCC=O [cis-4-heptenal, (Z)-Hept-4-enal], which “response of OR4S2 to DMDS … (Response %)” value is on record?
**A.** Its value is “suppressed the response of OR4S2 to DMDS in a concentration-dependent manner”.

**Q.** With C=C(C)[C@H]1CC=C(C)CC1 [dipentene, Dipentene] as the compound, how does the “response of OR4S2 to DMDS … (Response %)” value read?
**A.** The value was “suppressed the response of OR4S2 to DMDS in a concentration-dependent manner”.

**Q.** Which “response of OR4S2 to DMDS … (Response %)” value does the source give for CC1=CC=C(C(C)C)CC1 [α-terpinene, p-Mentha-1,3-diene] here?
**A.** Its value is “suppressed the response of OR4S2 to DMDS in a concentration-dependent manner”.

**Q.** For (+)-Limonene oxide, which “response of OR4S2 to DMDS … (Response %)” value is on record?
**A.** Its value is “suppressed the response of OR4S2 to DMDS in a concentration-dependent manner”.

Same assay, conditions: DMTS 300 μM; test substance 100 μM; FIG. 5

**Q.** For CC(C)C12CCC(C)(CC1)O2 [1,4-cineol, 1,4-Cineole], which “response of OR4S2 to DMTS in the presence of test substance (Fold increase)” value (“response of OR4S2 to DMTS … (Fold increase)” for short) is on record?
**A.** The value was “suppressed the response of OR4S2 to DMTS”.

**Q.** For CC(CC=O)CC(C)(C)C (stereo not drawn) [Trimethylhexyl aldehyde, 3,5,5-Trimethylhexanal], which “response of OR4S2 to DMTS … (Fold increase)” value is on record?
**A.** The value was “suppressed the response of OR4S2 to DMTS”.

**Q.** For CCCCOC(=O)C(C)CC (stereo not drawn) [butyl 2-methylbutanoate, Butyl 2-methylbutanoate], which “response of OR4S2 to DMTS … (Fold increase)” value is on record?
**A.** The value was “suppressed the response of OR4S2 to DMTS”.

**Q.** With CC/C=C\CCC=O [cis-4-heptenal, (Z)-Hept-4-enal] as the compound, how does the “response of OR4S2 to DMTS … (Fold increase)” value read?
**A.** The value was “suppressed the response of OR4S2 to DMTS”.

**Q.** For CC1=CC=C(C(C)C)CC1 [α-terpinene, p-Mentha-1,3-diene], which “response of OR4S2 to DMTS … (Fold increase)” value is on record?
**A.** The value was “suppressed the response of OR4S2 to DMTS”.

**Q.** Which “response of OR4S2 to DMTS … (Fold increase)” value does the source give for (+)-Limonene oxide here?
**A.** The value was “suppressed the response of OR4S2 to DMTS”.
